# Results published in patent publication EP0934746B1, “SUBSTANCE IN THE FORM OF AN AQUEOUS EXTRACT OF VEGETAL RAW MATERIAL FOR TREATING ONCOLOGICAL DISEASES, AND METHOD FOR PRODUCING THE SAME” (Gosudarstvenny Nauchny Tsentr Rossiiskoi Federatsii …, priority 1996, dated 1998).
# Legend:
# Lymphoid leukemia L1210 = assay: Influence of extract samples on curative effect of DDP in L1210 leukemia (TGI, LI); type: in vivo, mice BDF1; details: for TGI, % days 4: day 4; for TGI, % days 6: day 6; for TGI, % days 8: day 8; for LI, %: lifetime increase
# Procedure: In addition, the effect of the extracts on the therapeutic activity of the cytostatic cis-dichlorodiamine platinum (DDP) was estimated.
# Lymphoid leukemia L1210 was inoculated to BDF1 males in a sterile physiologic salt solution, 3x10^6 cells in 0.2 ml volume. The day of the inoculation was regarded as the zero day of tumor growth. The extract samples and DDP were administered in the doses and under the conditions specified in Tables 4, 5.
# Treatment of the animals was started 24 hours after the tumor inoculation, control animals were administered a physiologic salt solution instead of the vegetable extracts. The antitumoric effect was estimated from the tumor growth inhibition (TGI) calculated from theformula: TGI = [(Vcontrol - Vexperiment)/Vcontrol]x100%; [formula] mean lifetime (ML), lifetime increase (LI) calculated from the formula: LI = [(MLexperiment - MLcontrol)/Mlcontrol]x100%. [formula] TGI > 50%, LI > 50% were considered to be biologically significant effects.
# The obtained data were processed in accordance with the Fisher-Student procedure, using statistical programs. The differences were regarded confident at p < 0.05.
# [1] = test system: cell culture of human pulmonary adenocarcinoma A-549; assay: Cytotoxic activity in vitro: inhibition of proliferation of A-549 cell culture, colorimetric; type: cell-based
# Procedure: The cytotoxic activity of the extracts in vitro was determined with the help of a biological test based on inhibition of the proliferation of the inoculated cell culture of human pulmonary adenocarcinoma A-549 [7].
# When carrying out the cytotoxic biological test in vitro, each well of a flat-bottomed 96-well microtiter (Sarstedt, USA) was charged with 10 µl of a suspension of A549-line cells in a concentration of 1x10^5 cell/ml; 24 h later series dilutions of the vegetable preparations in the range of 1:4-1:64 were added, this corresponding to 3.0-0.1 mg/ml in the volume of 100 µl/well. The cytotoxic activity of the extracts and DDP was estimated colorimetrically. The results were expressed in the percentage of inhibition of the A-549 test-culture proliferation. The cytotoxic activity of the sample was adopted to be the maximum titer of the sample, at which the biologically significant (50%) level of inhibition of the A-549 test-culture proliferation was observed.
# [2] = test system: lipid peroxidation processes (LPP) in murine liver homogenate; assay: Antioxidant activity: inhibition of lipid peroxidation processes (LPP) in liver homogenate, thiobarbituric acid colour reaction; type: biochemical, BDF-1 (nondescript) mice; details: conventional unit = quantity required for 50% inhibition of LPP; 3 h at 37°C
# Procedure: The antioxidant activity of the extracts was determined from the ability of a sample to inhibit the lipid peroxidation processes (LPP) in murine liver homogenate.
# The antioxidant activity was used by using a method based on the ability of the sample being investigated to inhibit LPP processes in murine liver homogenate. The liver of BDF-1 (nondescript) mice was homogenized in a glass homogenizer and then centrifugated. The liver homogenate was introduced in an amount of 5-6 mg of protein per assay. The volume of the assay was brought to 0.5 ml with a solution of the sample being tested for the antioxidant activity. The assays were incubated for 3 h at 37°C.
# The concentration of the LPP products was determined from the color reaction with thiobarbituric acid. The quantity of the antioxidant required for the 50% inhibition of LPP was adopted as a conventional unit of the sample under investigation.
molecule,measurement,setting,value
"N.N.[Cl][Pt][Cl] [DDP, cis-dichlorodiamine platinum]","TGI, % days 4",Lymphoid leukemia L1210; DDP alone 9 mg/kg,100%
same,"TGI, % days 6",Lymphoid leukemia L1210; DDP alone 9 mg/kg,93%
same,"TGI, % days 8",Lymphoid leukemia L1210; DDP alone 9 mg/kg,33%
same,"LI, %",Lymphoid leukemia L1210; DDP alone 9 mg/kg,41%
same,"TGI, % days 4",Lymphoid leukemia L1210; DDP alone 10 mg/kg,100%
same,"TGI, % days 6",Lymphoid leukemia L1210; DDP alone 10 mg/kg,87%
same,"TGI, % days 8",Lymphoid leukemia L1210; DDP alone 10 mg/kg,65%
same,"LI, %",Lymphoid leukemia L1210; DDP alone 10 mg/kg,32%
same,"Inhibition, %","[1]; A-549 proliferation, at the titer/concentration in the column beside it",68%
same,Maximum titer (as concentration),[1]; DDP control,10 µg/mL
same,ability to inhibit proliferation of the cell culture A-549,[1]; at the concentration of 0.01 mg/ml,68%
CC1=C(/C=C/C(C)=C/C=C/C(C)=C/C=C/C=C(C)/C=C/C=C(C)/C=C/C2=C(C)CCCC2(C)C)C(C)(C)CCC1 [β-Carotene],"Antioxidant activity, conv. units (1/mg)",[2],6 conv. units (1/mg)
"O=C1O[C@H]([C@@H](O)CO)C(O)=C1O [Ascorbic acid (vitamin C), Ascorbic acid]","Antioxidant activity, conv. units (1/mg)",[2],12 conv. units (1/mg)
Retinol acetate [Retinol acetate (vitamin A)],"Antioxidant activity, conv. units (1/mg)",[2],83 conv. units (1/mg)
